The values below come from patent US6444850B1, “Fungicidial compounds having a fluorovinyloxphyenyl moiety and process for the preparation thereof” (priority 1997, dated 2002).

One test deals with Botrytis cinerae. Briefly: Fungicidal activity against cucumber gray mold rot (CGM) disease. It is filed as in vivo. The following applies: 50 ppm, control value.
Test [1] has as its system Pyricularia oryzae Carvara KA301. It is filed as in vivo. The conditions noted are these: for C. V. (%) RCB: 50 ppm, control value, rice blast; for C. V. (%) Fungicidal Activities against RCB at 10 ppm / C. V. (%) Fungicidal Activities against RCB at 10 ppm (TABLE 6): sprayed on Nakdong rice plant, control value from lesion area.
Another test has as its system Phytophthora infestans. Format: in vivo. The following applies: 50 ppm; control value, tomato late blight.
In a further test the test system is Puccinia recondita. Briefly: Fungicidal activity against wheat leaf rust (WLR) disease. Format: in vivo. The following applies: for C. V. (%) WLR: 50 ppm, control value, wheat leaf rust; for C. V. (%), Fungicidal Activities against WLB at 10 ppm: Table 8 (Test Example 5).
The subject of another test is Erysiphae graminis. Briefly: Fungicidal activity against barley powdery mildew (BPM) disease. The following applies: for C. V. (%) BPM: 50 ppm, control value, barley powdery mildew; for C. V. (%), Fungicidal activities against TLB at 10 ppm: Table 9 (Test Example 6). It is filed as in vivo.
The next test relates to Rhizoctonia solani AG-1. Briefly: Fungicidal activity against rice sheath blight (RSB) disease. The conditions noted are these: 50 ppm, control value.

In the case of `COC(=O)C(=CSC)c1ccccc1COc1cccc(OC(F)=Cc2cccc(OC)c2)c1` [Compound 28], the “C. V. (%) CGM” value in the test on Botrytis cinerae is on record as 21%. For the same molecule, the “C. V. (%) RCB” value in test [1] is on record as 93%. Besides, the “C. V. (%) TLB” value in the test on Phytophthora infestans was determined as 73%. Moreover, the “C. V. (%) WLR” value in the test on Puccinia recondita stood at 91%. For the same molecule, the “C. V. (%) BPM” value in the test with Erysiphae graminis came out at 97%. Further, the “C. V. (%) RSB” value with Rhizoctonia solani AG-1 came out at 70%.
`COC=C(C(=O)OC)c1ccccc1COc1cccc(OC(F)=C(c2cccc(OC)c2)C(F)(F)F)c1` [Compound 71]: the “C. V. (%) CGM” value in the test on Botrytis cinerae amounted to 41%. In addition, in test [1], the “C. V. (%) RCB” value was determined as 90%. Further, in the test on Phytophthora infestans, the “C. V. (%) TLB” value turned out to be 62%. Also, in the test on Puccinia recondita, the “C. V. (%), Fungicidal Activities against WLB at 10 ppm” value came to 95% and the “C. V. (%) WLR” value is reported as 100%. In addition, in the test on Erysiphae graminis, the “C. V. (%), Fungicidal activities against TLB at 10 ppm” value came out at 100% and the “C. V. (%) BPM” value worked out at 100%. In addition, the “C. V. (%) RSB” value in the test with Rhizoctonia solani AG-1 came out at 40%.
Consider `CON=C(C(=O)OC)c1ccccc1COc1cccc(OC(F)=Cc2ccc(C)cc2)c1` [Compound 12], for which the “C. V. (%) CGM” value in the test on Botrytis cinerae turned out to be 27%. The “C. V. (%) RCB” value in test [1] was 100%. In addition, the “C. V. (%) TLB” value with Phytophthora infestans is given as 84%. Also, in the test with Puccinia recondita, the “C. V. (%), Fungicidal Activities against WLB at 10 ppm” value was found to be 97% and the “C. V. (%) WLR” value stood at 93%. In addition, in the test on Erysiphae graminis, the “C. V. (%), Fungicidal activities against TLB at 10 ppm” value amounted to 96% and the “C. V. (%) BPM” value is given as 94%. In the test on Rhizoctonia solani AG-1, the “C. V. (%) RSB” value was found to be 80%.
Consider `CCc1ccc(C(=C(F)Oc2cccc(OCc3ccccc3C(=COC)C(=O)NC)c2)C(F)(F)F)cc1` [Compound 59], for which the “C. V. (%) CGM” value with Botrytis cinerae amounted to 0%. Besides, in test [1], the “C. V. (%) RCB” value is recorded as 12%. In the test with Phytophthora infestans, the “C. V. (%) TLB” value turned out to be 33%. In the test on Puccinia recondita, the “C. V. (%) WLR” value amounted to 0%. For the same molecule, the “C. V. (%) BPM” value in the test with Erysiphae graminis is 0%. The “C. V. (%) RSB” value in the test on Rhizoctonia solani AG-1 amounted to 33%.
For `COC=C(C(=O)OC)c1ccccc1COc1cccc(OC(F)=C(c2ccc(F)cc2)C(F)(F)F)c1` [Compound 96], the “C. V. (%) CGM” value in the test with Botrytis cinerae came out at 33%. Further, in test [1], the “C. V. (%) Fungicidal Activities against RCB at 10 ppm” value was determined as 95%, the “C. V. (%) Fungicidal Activities against RCB at 10 ppm (TABLE 6)” value (from here on “C. V. (%) Fungicidal Activities … (TABLE 6)”) came to 95% and the “C. V. (%) RCB” value is reported as 90%. Besides, the “C. V. (%) TLB” value in the test with Phytophthora infestans is recorded as 62%. In the test with Puccinia recondita, the “C. V. (%), Fungicidal Activities against WLB at 10 ppm” value stood at 97% and the “C. V. (%) WLR” value worked out at 100%. Also, in the test with Erysiphae graminis, the “C. V. (%), Fungicidal activities against TLB at 10 ppm” value was found to be 100% and the “C. V. (%) BPM” value turned out to be 100%. Moreover, in the test with Rhizoctonia solani AG-1, the “C. V. (%) RSB” value is 67%.
Regarding `CNC(=O)/C(=C/OC)c1ccccc1COc1cccc(OC(F)=C(c2ccc(C)c(C)c2)C(F)(F)F)c1` [Compound 64], the “C. V. (%) CGM” value with Botrytis cinerae is listed as 0%. Also, the “C. V. (%) RCB” value in test [1] is 16%. The “C. V. (%) TLB” value in the test on Phytophthora infestans came out at 22%. Moreover, the “C. V. (%) WLR” value with Puccinia recondita came out at 0%. For the same molecule, the “C. V. (%) BPM” value in the test with Erysiphae graminis was found to be 0%. Further, in the test with Rhizoctonia solani AG-1, the “C. V. (%) RSB” value is on record as 0%.
Take `CON=C(C(=O)OC)c1ccccc1COc1cccc(OC(F)=C(c2cc(Cl)cc(Cl)c2)C(F)(F)F)c1` [Compound 103]: the “C. V. (%) CGM” value with Botrytis cinerae was 0%. In test [1], the “C. V. (%) RCB” value worked out at 0%. Moreover, the “C. V. (%) TLB” value in the test on Phytophthora infestans is listed as 3%. In the test with Puccinia recondita, the “C. V. (%), Fungicidal Activities against WLB at 10 ppm” value is listed as 96% and the “C. V. (%) WLR” value came to 100%. Besides, in the test on Erysiphae graminis, the “C. V. (%), Fungicidal activities against TLB at 10 ppm” value amounted to 100% and the “C. V. (%) BPM” value amounted to 100%. In the test on Rhizoctonia solani AG-1, the “C. V. (%) RSB” value was 60%.
`CNC(=O)C(=COC)c1ccccc1COc1cccc(OC(F)=Cc2cccc(F)c2)c1` [Compound 35]: the “C. V. (%) CGM” value in the test with Botrytis cinerae turned out to be 35%. Moreover, in test [1], the “C. V. (%) RCB” value stood at 15%. The “C. V. (%) TLB” value with Phytophthora infestans was 35%. In addition, the “C. V. (%) WLR” value in the test on Puccinia recondita is 40%. The “C. V. (%) BPM” value in the test on Erysiphae graminis stood at 58%. Moreover, the “C. V. (%) RSB” value in the test on Rhizoctonia solani AG-1 is reported as 30%.
Turning to `CON=C(C(=O)OC)c1ccccc1COc1cccc(OC(F)=C(c2cccc(OC)c2)C(F)(F)F)c1` [Compound 73], the “C. V. (%) CGM” value with Botrytis cinerae amounted to 9%. In test [1], the “C. V. (%) RCB” value is on record as 93%. In addition, the “C. V. (%) TLB” value with Phytophthora infestans was 60%. Further, in the test with Puccinia recondita, the “C. V. (%), Fungicidal Activities against WLB at 10 ppm” value was found to be 96% and the “C. V. (%) WLR” value is given as 98%. In the test with Erysiphae graminis, the “C. V. (%), Fungicidal activities against TLB at 10 ppm” value is reported as 88% and the “C. V. (%) BPM” value is 93%. For the same molecule, the “C. V. (%) RSB” value with Rhizoctonia solani AG-1 is 92%.
With `CNC(=O)C(=NOC)c1ccccc1COc1cccc(OC(F)=C(c2cccc(Cl)c2)C(F)(F)F)c1` [Compound 87], the “C. V. (%) CGM” value in the test with Botrytis cinerae is on record as 0%. Besides, in test [1], the “C. V. (%) Fungicidal Activities against RCB at 10 ppm” value stood at 100%, the “C. V. (%) Fungicidal Activities … (TABLE 6)” value was 100% and the “C. V. (%) RCB” value was determined as 100%. Moreover, the “C. V. (%) TLB” value in the test with Phytophthora infestans was 0%. In the test with Puccinia recondita, the “C. V. (%), Fungicidal Activities against WLB at 10 ppm” value was determined as 100% and the “C. V. (%) WLR” value came to 100%. Besides, in the test on Erysiphae graminis, the “C. V. (%), Fungicidal activities against TLB at 10 ppm” value stood at 100% and the “C. V. (%) BPM” value is 100%. Besides, in the test on Rhizoctonia solani AG-1, the “C. V. (%) RSB” value is recorded as 0%.
Take `CNC(=O)C(=COC)c1ccccc1COc1cccc(OC(F)=C(c2ccc(Br)cc2)C(F)(F)F)c1` [Compound 101]: the “C. V. (%) CGM” value with Botrytis cinerae was determined as 21%. Also, in test [1], the “C. V. (%) RCB” value worked out at 0%. The “C. V. (%) TLB” value with Phytophthora infestans is recorded as 3%. Moreover, the “C. V. (%) WLR” value in the test with Puccinia recondita is listed as 73%. In addition, in the test on Erysiphae graminis, the “C. V. (%) BPM” value stood at 0%. In addition, the “C. V. (%) RSB” value in the test on Rhizoctonia solani AG-1 is reported as 10%.
Take `COC=C(C(=O)OC)c1ccccc1COc1cccc(OC(F)=Cc2ccc(Cl)cc2)c1` [Compound 37]: in the test with Botrytis cinerae, the “C. V. (%) CGM” value is recorded as 58%. Besides, in test [1], the “C. V. (%) Fungicidal Activities against RCB at 10 ppm” value worked out at 100%, the “C. V. (%) Fungicidal Activities … (TABLE 6)” value was determined as 100% and the “C. V. (%) RCB” value was 95%. For the same molecule, in the test with Phytophthora infestans, the “C. V. (%) TLB” value is listed as 93%. Moreover, in the test on Puccinia recondita, the “C. V. (%), Fungicidal Activities against WLB at 10 ppm” value is 97% and the “C. V. (%) WLR” value is on record as 98%. Moreover, in the test on Erysiphae graminis, the “C. V. (%), Fungicidal activities against TLB at 10 ppm” value is recorded as 100% and the “C. V. (%) BPM” value turned out to be 98%. Besides, in the test with Rhizoctonia solani AG-1, the “C. V. (%) RSB” value worked out at 45%.
Take `CNC(=O)C(=NOC)c1ccccc1COc1cccc(OC(F)=C(c2cc(Cl)cc(Cl)c2)C(F)(F)F)c1` [Compound 104]: the “C. V. (%) CGM” value in the test on Botrytis cinerae is 0%. Further, in test [1], the “C. V. (%) Fungicidal Activities against RCB at 10 ppm” value turned out to be 98%, the “C. V. (%) Fungicidal Activities … (TABLE 6)” value is given as 98% and the “C. V. (%) RCB” value is recorded as 100%. Also, the “C. V. (%) TLB” value in the test on Phytophthora infestans is 0%. In addition, in the test with Puccinia recondita, the “C. V. (%), Fungicidal Activities against WLB at 10 ppm” value is listed as 100% and the “C. V. (%) WLR” value was 100%. Moreover, in the test on Erysiphae graminis, the “C. V. (%), Fungicidal activities against TLB at 10 ppm” value is listed as 100% and the “C. V. (%) BPM” value is listed as 100%. Besides, in the test with Rhizoctonia solani AG-1, the “C. V. (%) RSB” value was 50%.
On to `COC(=O)C(=CSC)c1ccccc1COc1cccc(OC(F)=Cc2cc(C)c(C)cc2C)c1` [Compound 24], for which, in the test on Botrytis cinerae, the “C. V. (%) CGM” value is 27%. Further, the “C. V. (%) RCB” value in test [1] is recorded as 62%. Moreover, the “C. V. (%) TLB” value in the test on Phytophthora infestans stood at 18%. The “C. V. (%) WLR” value in the test with Puccinia recondita is 98%. Moreover, the “C. V. (%) BPM” value with Erysiphae graminis was found to be 96%. Moreover, the “C. V. (%) RSB” value in the test with Rhizoctonia solani AG-1 is 46%.
On to `CO/C=C(/C(=O)OC)c1ccccc1COc1cccc(OC(F)=Cc2ccccc2)c1` [Compound 1, methyl (2E)-3-methoxy-2-{2′-{3″-(2′″-fluorostyryl)-2′″-oxy}phenoxymethyl}phenyl-2-propenoate], for which the “C. V. (%) CGM” value with Botrytis cinerae is recorded as 62%. Moreover, in test [1], the “C. V. (%) RCB” value worked out at 97%. The “C. V. (%) TLB” value with Phytophthora infestans is 70%. In the test on Puccinia recondita, the “C. V. (%), Fungicidal Activities against WLB at 10 ppm” value was 96% and the “C. V. (%) WLR” value was 100%. Besides, in the test with Erysiphae graminis, the “C. V. (%), Fungicidal activities against TLB at 10 ppm” value was 100% and the “C. V. (%) BPM” value is recorded as 100%. Further, the “C. V. (%) RSB” value in the test on Rhizoctonia solani AG-1 was determined as 95%.
